Results published in patent US4994376A, “Detection of bacteroides gingivalis” (priority 1987, dated 1991).
Like-named read-outs stand apart in the source and are kept apart here. Peptide text beside a SMILES is read from it. * marks the point of attachment. βNA = c1ccc2cc(N*)ccc2c1

Key:
Format in all cases: biochemical
B. corporis = assay: Aminopeptidase activity on β-naphthylamide substrates; details: strain ATCC 33547; β-naphthylamine liberated after 60 minutes, 37° C.
Procedure: (§1) The enzyme activity was measured by the chromogenic properties of N-CBz-glycyl-glycyl-L-arginine-β-naphthylamide which upon hydrolysis gives a visible color. The aminopeptidase activities listed in the table reflect the nanomoles of β-naphthylamine liberated after 60 minutes under the conditions described below.
(§2) After mixing, the solution is incubated for 1 hour at 37° C. and then 0.4 ml of a solution of stabilized diazonium salt, Fast Garnet GBC (0.5 mg/ml) in a 1M acetic acid buffer (pH 4.2), containing 10% Tween 20 was added to the mixture. After standing for 15 minutes at room temperature, the color reaction can be read manually by comparison with standard solutions or the absorbancy can be determined using a spectrophotometer at 525 nm. The reaction mixture without enzyme solution is used as a control.

C. sputigena = assay: as above; details: strain ATCC 33123; β-naphthylamine liberated after 60 minutes, 37° C.
Procedure: as §1, §2

B. melaninogenicus = assay: as above; details: strain ATCC 25845; β-naphthylamine liberated after 60 minutes, 37° C.
Procedure: as §1, §2

B. intermedius = assay: as above; details: strain ATCC 25611; β-naphthylamine liberated after 60 minutes, 37° C.
Procedure: as §1, §2

B. denticola = assay: as above; details: strain ATCC 33185; β-naphthylamine liberated after 60 minutes, 37° C.
Procedure: as §1, §2

Haemophilus aphrophilus = assay: as above; details: β-naphthylamine liberated after 60 minutes, 37° C.
Procedure: as §1, §2
(§3) The enzyme activity and the aminopeptidase activities were determined in the manner described above in regard to Table I.

S. salivarius = assay: as above; details: β-naphthylamine liberated after 60 minutes, 37° C.
Procedure: as §1, §2, §3

Lactobacillus casei = assay: as above; details: β-naphthylamine liberated after 60 minutes, 37° C.
Procedure: as §1, §2, §3

L. fermentum = assay: as above; details: strain ATCC 11581; β-naphthylamine liberated after 60 minutes, 37° C.
Procedure: as §1, §2, §3

A. suis = assay: as above; details: strain ATCC 15557; β-naphthylamine liberated after 60 minutes, 37° C.
Procedure: as §1, §2, §3

A. equuli = assay: as above; details: strain ATCC 19392; β-naphthylamine liberated after 60 minutes, 37° C.
Procedure: as §1, §2, §3

F. periodonticum = assay: as above; details: strain EK1-15; β-naphthylamine liberated after 60 minutes, 37° C.
Procedure: as §1, §2, §3

Veillonella sp. = details: strain SE1M2; β-naphthylamine liberated after 60 minutes, 37° C.
Procedure: as §1, §2, §3

Fusobacterium nucleatum = details: β-naphthylamine liberated after 60 minutes, 37° C.
Procedure: as §1, §2, §3

Actinomyces israeli = details: β-naphthylamine liberated after 60 minutes, 37° C.
Procedure: as §1, §2, §3

S. sanguis = details: β-naphthylamine liberated after 60 minutes, 37° C.
Procedure: as §1, §2, §3

A. viscosus = details: β-naphthylamine liberated after 60 minutes, 37° C.
Procedure: as §1, §2, §3

A. seminis = details: strain ATCC 15768; β-naphthylamine liberated after 60 minutes, 37° C.
Procedure: as §1, §2, §3

S. mutans = details: strain ATCC 25175; β-naphthylamine liberated after 60 minutes, 37° C.
Procedure: as §1, §2, §3

V. parvula = details: strain ATCC 10790; β-naphthylamine liberated after 60 minutes, 37° C.
Procedure: as §1, §2, §3

B. mel. ss. intermedius = details: β-naphthylamine liberated after 60 minutes, 37° C.
Procedure: as §1, §2

[1] = system: Capnocytophaga gingivalis; details: strain ATCC 33624; β-naphthylamine liberated after 60 minutes, 37° C.
Procedure: as §1, §2

Bacteroides gingivalis = details: β-naphthylamine liberated after 60 minutes, 37° C.
Procedure: as §1, §2

C. ochracea = details: strain ATCC 27872; β-naphthylamine liberated after 60 minutes, 37° C.
Procedure: as §1, §2

B. asaccharolyticus = details: β-naphthylamine liberated after 60 minutes, 37° C.
Procedure: as §1, §2

Capnocytophaga sp. = details: strain JD3-5; β-naphthylamine liberated after 60 minutes, 37° C.
Procedure: as §1, §2

B. loescheii = details: β-naphthylamine liberated after 60 minutes, 37° C.
Procedure: as §1, §2

B. levii = details: β-naphthylamine liberated after 60 minutes, 37° C.
Procedure: as §1, §2

## CSCCC(N)C(=O)Nc1ccc2ccccc2c1 (racemic)
B. corporis
  Aminopeptidase activity: 0 nmol
C. sputigena
  Aminopeptidase activity: 117 nmol
B. melaninogenicus
  Aminopeptidase activity: 1 nmol
B. intermedius
  Aminopeptidase activity: 0 nmol
B. denticola
  Aminopeptidase activity: 0 nmol
Haemophilus aphrophilus; strain ATCC 13252
  Aminopeptidase activity: 0 nmol
Haemophilus aphrophilus; strain ATCC 19415
  Aminopeptidase activity: 0 nmol
Haemophilus aphrophilus; strain NCTC 5908
  Aminopeptidase activity: 0 nmol
S. salivarius; strain ATCC 9759
  Aminopeptidase activity: 5 nmol
S. salivarius; strain ATCC 25975
  Aminopeptidase activity: 1 nmol
Lactobacillus casei; strain ATCC 7469
  Aminopeptidase activity: 1 nmol
Lactobacillus casei; strain ATCC 11578
  Aminopeptidase activity: 9 nmol
Lactobacillus casei; strain ATCC 11582
  Aminopeptidase activity: 9 nmol
L. fermentum
  Aminopeptidase activity: 6 nmol
A. suis
  Aminopeptidase activity: 0 nmol
A. equuli
  Aminopeptidase activity: 0 nmol
F. periodonticum
  Aminopeptidase activity: 0 nmol
Veillonella sp.
  Aminopeptidase activity: 0 nmol
Fusobacterium nucleatum; strain 2
  Aminopeptidase activity: 1 nmol
Fusobacterium nucleatum; strain ATCC 25586
  Aminopeptidase activity: 0 nmol
Fusobacterium nucleatum; strain D31A-24
  Aminopeptidase activity: 0 nmol
Actinomyces israeli; strain ATCC 12103
  Aminopeptidase activity: 12 nmol
Actinomyces israeli; strain DK2-3
  Aminopeptidase activity: 33 nmol
S. sanguis; strain ATCC 10556
  Aminopeptidase activity: 23 nmol
S. sanguis; strain ATCC 10557
  Aminopeptidase activity: 18 nmol
A. viscosus; strain ATCC 19246
  Aminopeptidase activity: 9 nmol
A. viscosus; strain T14V
  Aminopeptidase activity: 7 nmol
A. seminis
  Aminopeptidase activity: 0 nmol
S. mutans
  Aminopeptidase activity: 5 nmol
V. parvula
  Aminopeptidase activity: 0 nmol
B. mel. ss. intermedius; strain ATCC 25261
  Aminopeptidase activity: 0 nmol
B. mel. ss. intermedius; strain ATCC 33563
  Aminopeptidase activity: 0 nmol
B. mel. ss. intermedius; strain NCTC 9336
  Aminopeptidase activity: 0 nmol
[1]
  Aminopeptidase activity: 122 nmol
Bacteroides gingivalis; strain 9-14K-1
  Aminopeptidase activity: 0 nmol
Bacteroides gingivalis; strain 11-1-2
  Aminopeptidase activity: 0 nmol
Bacteroides gingivalis; strain 381
  Aminopeptidase activity: 0 nmol
Bacteroides gingivalis; strain 1021
  Aminopeptidase activity: 0 nmol
Bacteroides gingivalis; strain ATCC 33277
  Aminopeptidase activity: 0 nmol
Bacteroides gingivalis; strain FAYE 19m-1
  Aminopeptidase activity: 0 nmol
C. ochracea
  Aminopeptidase activity: 118 nmol
B. asaccharolyticus; strain 536B
  Aminopeptidase activity: 0 nmol
B. asaccharolyticus; strain ATCC 18569
  Aminopeptidase activity: 0 nmol
B. asaccharolyticus; strain ATCC 25260
  Aminopeptidase activity: 1 nmol
B. asaccharolyticus; strain ATCC 27067
  Aminopeptidase activity: 2 nmol
B. asaccharolyticus; strain NY446
  Aminopeptidase activity: 0 nmol
Capnocytophaga sp.
  Aminopeptidase activity: 28 nmol
B. loescheii; strain ATCC 15930
  Aminopeptidase activity: 0 nmol
B. loescheii; strain VPI4196
  Aminopeptidase activity: 0 nmol
B. levii; strain 18-1-5
  Aminopeptidase activity: 0 nmol
B. levii; strain 18-1-8
  Aminopeptidase activity: 1 nmol

## C[C@H](N)C(=O)N[C@@H](C)C(=O)N[C@@H](Cc1ccccc1)C(=O)Nc1ccc2ccccc2c1 [Ala-Ala-Phe] (H-Ala-Ala-Phe-βNA)
B. corporis
  Aminopeptidase activity: 0 nmol
C. sputigena
  Aminopeptidase activity: 44 nmol
B. melaninogenicus
  Aminopeptidase activity: 1 nmol
B. intermedius
  Aminopeptidase activity: 0 nmol
B. denticola
  Aminopeptidase activity: 2 nmol
Haemophilus aphrophilus; strain ATCC 13252
  Aminopeptidase activity: 0 nmol
Haemophilus aphrophilus; strain ATCC 19415
  Aminopeptidase activity: 0 nmol
Haemophilus aphrophilus; strain NCTC 5908
  Aminopeptidase activity: 0 nmol
S. salivarius; strain ATCC 9759
  Aminopeptidase activity: 0 nmol
S. salivarius; strain ATCC 25975
  Aminopeptidase activity: 0 nmol
Lactobacillus casei; strain ATCC 7469
  Aminopeptidase activity: 0 nmol
Lactobacillus casei; strain ATCC 11578
  Aminopeptidase activity: 3 nmol
Lactobacillus casei; strain ATCC 11582
  Aminopeptidase activity: 3 nmol
L. fermentum
  Aminopeptidase activity: 5 nmol
A. suis
  Aminopeptidase activity: 0 nmol
A. equuli
  Aminopeptidase activity: 0 nmol
F. periodonticum
  Aminopeptidase activity: 1 nmol
Veillonella sp.
  Aminopeptidase activity: 0 nmol
Fusobacterium nucleatum; strain 2
  Aminopeptidase activity: 2 nmol
Fusobacterium nucleatum; strain ATCC 25586
  Aminopeptidase activity: 3 nmol
Fusobacterium nucleatum; strain D31A-24
  Aminopeptidase activity: 0 nmol
Actinomyces israeli; strain ATCC 12103
  Aminopeptidase activity: 3 nmol
Actinomyces israeli; strain DK2-3
  Aminopeptidase activity: 0 nmol
S. sanguis; strain ATCC 10556
  Aminopeptidase activity: 2 nmol
S. sanguis; strain ATCC 10557
  Aminopeptidase activity: 1 nmol
A. viscosus; strain ATCC 19246
  Aminopeptidase activity: 2 nmol
A. viscosus; strain T14V
  Aminopeptidase activity: 4 nmol
A. seminis
  Aminopeptidase activity: 0 nmol
S. mutans
  Aminopeptidase activity: 0 nmol
V. parvula
  Aminopeptidase activity: 0 nmol
B. mel. ss. intermedius; strain ATCC 25261
  Aminopeptidase activity: 0 nmol
B. mel. ss. intermedius; strain ATCC 33563
  Aminopeptidase activity: 0 nmol
B. mel. ss. intermedius; strain NCTC 9336
  Aminopeptidase activity: 0 nmol
[1]
  Aminopeptidase activity: 72 nmol
Bacteroides gingivalis; strain 9-14K-1
  Aminopeptidase activity: 0 nmol
Bacteroides gingivalis; strain 11-1-2
  Aminopeptidase activity: 0 nmol
Bacteroides gingivalis; strain 381
  Aminopeptidase activity: 0 nmol
Bacteroides gingivalis; strain 1021
  Aminopeptidase activity: 0 nmol
Bacteroides gingivalis; strain ATCC 33277
  Aminopeptidase activity: 1 nmol
Bacteroides gingivalis; strain FAYE 19m-1
  Aminopeptidase activity: 3 nmol
C. ochracea
  Aminopeptidase activity: 82 nmol
B. asaccharolyticus; strain 536B
  Aminopeptidase activity: 0 nmol
B. asaccharolyticus; strain ATCC 18569
  Aminopeptidase activity: 0 nmol
B. asaccharolyticus; strain ATCC 25260
  Aminopeptidase activity: 0 nmol
B. asaccharolyticus; strain ATCC 27067
  Aminopeptidase activity: 0 nmol
B. asaccharolyticus; strain NY446
  Aminopeptidase activity: 0 nmol
Capnocytophaga sp.
  Aminopeptidase activity: 0 nmol
B. loescheii; strain ATCC 15930
  Aminopeptidase activity: 1 nmol
B. loescheii; strain VPI4196
  Aminopeptidase activity: 0 nmol
B. levii; strain 18-1-5
  Aminopeptidase activity: 0 nmol
B. levii; strain 18-1-8
  Aminopeptidase activity: 0 nmol
